Results from US20140187430A1, “Compositions and Methods for Identifying Autism Spectrum Disorders” (George Washington University, priority 2010, published 2014).
“Also recorded” adds a separate entry of the source.

How the values were obtained:
Type in all cases: cell-based, human
RORA = experiment: qRT-PCR of RORA transcript in LCL after 5-Aza-2-deoxycytidine treatment; details: 5 μM, 48 hours
Method: (§1) LCL, which were obtained from the Autism Genetic Research Exchange (AGRE; Los Angeles, Calif.) were derived from lymphocytes of autistic and normal siblings and cultured as previously described (Hu et al. (2006) BMC Genomics 7, 118). Demethylating treatments were carried out by incubating cells in culture with 5 μM 5-Aza-2-deoxycytidine (Fluka, St. Louis, Mo.) or vehicle control, DMSO (FisherBioTech, Pittsburgh, Pa.) for 48 hours before harvesting cells.
(§2) Genomic DNA was isolated using the Qiagen DNeasy™ Blood and Tissue Kit (Valencia, Calif.) and used for bisulfite modification for methylation analyses. Total RNA was isolated using TRIzol reagent (Invitrogen, Carlsbad, Calif.) according to the manufacturer's protocol and used for gene expression analyses by quantitative RT-PCR. […]
(§3) Two candidate genes, BCL-2 and RORA, were chosen for quantitative real-time (RT)-PCR analysis to examine the correlation between expression of mRNA transcript and methylation status as predicted by microarray analysis, as well as to examine the effect of 5-Aza-2-deoxycytidine treatment on transcript levels. […] The qPCR reactions (in triplicate) were analyzed on an ABI Prism 7300 Sequence Detection System and transcript levels of BCL-2 and RORA were quantified and normalized to standard curves obtained using universal 18S rRNA primers.

BCL-2 = experiment: qRT-PCR of BCL-2 transcript in LCL after 5-Aza-2-deoxycytidine treatment; details: 5 μM, 48 hours
Method: as §1, §2, §3

[1] = test system: upstream CpG island region of RORA; experiment: Methylation-specific PCR (MSP) of upstream CpG island region of RORA in LCL; details: LCL of autistic individuals; 5 μM, 48 hours
Method: as §1
Two ug of genomic DNA isolated from LCL were treated with sodium bisulfite using the Active Motif MethylDetector kit (Carlsbad, Calif.) according to the manufacturer's specifications. Successful bisulfite treatment and conversion was verified using positive control PCR primers for the p16 (CDKN2A) locus provided in the MethylDetector kit.
For methylation-specific PCR (MSP), 2 sets of primers spanning a region approximately 300 bp upstream of the first exon of RORA (UHNhscpg0014103; chr15:59309160-59309428) were designed according to assumed differences in methylation status (i.e., fully methylated or fully unmethylated). These primers were previously successful in identifying methylation-specific silencing of RORA in several gastric cancer cell lines (Yamashita et al. (2006) Cancer Science 97, 64-71). Bisulfite-modified genomic DNA was used as a template for PCR and PCR products were resolved by agarose gel electrophoresis.

[2] = LCL from the "mild" undiagnosed co-twins
[3] = LCL of autistic individuals, vs DMSO vehicle

What does the source list for `Nc1ncn([C@H]2C[C@H](O)[C@@H](CO)O2)c(=O)n1` [5-Aza-2-deoxycytidine]?
change in RORA expression level with treatment (RORA; [2]): no statistically significant increases; fold-change in RORA transcript expression following treatment (RORA; [3]): 1.8 fold; change in BCL-2 expression level with treatment (BCL-2; [2]): no statistically significant increases; fold-change in BCL-2 transcript expression following treatment (BCL-2; [3]): 1.5 fold; methylated PCR product of RORA promoter region (MSP) following treatment [1]: absence of methylated product; also recorded: absence of methylation
